Data published in publication PMC3321104 (Bioorganic & medicinal chemistry letters, 2012).
Where two headings read alike, the source gives them in different places.

What was measured:
[1] = system: chloroquine-resistant P. falciparum strain W2
Vero cell = Vero cell toxicity; format: cell-based; details: concentrations up to 25 μM
[2] = system: chloroquine-resistant P. falciparum strain W2; assay: microbe, parasite or virus in culture; details: Plasmodium falciparum

CC1=C(CCCCC[P+](c2ccccc2)(c2ccccc2)c2ccccc2)C(=O)c2ccccc2C1=O [9n]
fold greater activity than control 4a [1]: 3–7 fold

CC1=C(CCCC[P+](c2ccccc2)(c2ccccc2)c2ccccc2)C(=O)c2ccccc2C1=O [9o, (4-(3-methyl-1,4-dioxo-1,4-dihydronaphthalen-2-yl)butyl)triphenyl-phosphonium methanesulfonate]
Vero cell toxicity (in words) (Vero cell): not displaying toxicity at 25 μM

O=C(Cn1ccnc1[N+](=O)[O-])NCc1ccccc1 [BNZ, benznidazole]
Vero cell toxicity (in words) (Vero cell): non-toxic

CCN(CC)CCCC(C)Nc1ccnc2cc(Cl)ccc12 (centres unmarked) [CQ, chloroquine]
IC50 ([2]; W2, read-out: IC50 (nM), P. falciparum growth): 66.9 ± 2.3 nM
IC50 ([2]; W2, read-out: IC50, P. falciparum W2): 66.9 nM
